Where a name gives a salt, the structure may show the parent alone.
Target: kinase domain of IRE1 alpha (His-tagged kinase dead construct KR, AA G547-L977, D688N) (Homo sapiens (Human), UniProt O75460, D688N)
Test: IRE1α TR-FRET competition binding assay
Settings: competition with Kinase Tracer 236, 0.1 μM; one hour at room temperature
Protocol: To determine the affinity of compound binding to the kinase domain of IRE1 alpha, a Time Resolved Fluorescence Resonance Energy Transfer (TR-FRET) competition assay was used. A His-tagged IRE1 alpha kinase dead construct containing the kinase and RNase domains (KR, AA G547-L977, D688N) was expressed in Sf9 insect cells. The purified protein (final concentration 0.006 μM micromolar) was pre-incubated with anti-His Europium labeled antibody (Life Technologies PV5596, final concentration 0.002 μM micromolar) for one hour at 4° C. in 1X TR-FRET Assay Buffer (50 mM HEPES, pH 7.5.10 mM MgCl2, 0.083 mM Brij 35, 1 mM DTT, and 0.1% bovine gamma globulin) prior to addition to test compounds. A fluorescent labeled probe based on an ATP competitive inhibitor (Kinase Tracer 236, Life Technologies PV5592) is added to a final concentration of 0.1 μM (micromolar). Reactions were carried out for one hour at room temperature in a final volume of 20 μL (microliter) in 384 well white ProxiPlates (Perkin Elmer 6008289). Binding of the tracer to the IRE1 protein alpha was detected in an Envision instrument (PerkinElmer) equipped with a TRF laser option and a LANCE/Delfia Dual/Bias D400/D630 mirror (Ex 347 nm, 1st Em 665 nm, 2nd Em 615 nm).
Exemplary compounds in Table A1 were tested in the IRE1α binding assays.

Sequence of kinase domain of IRE1 alpha (His-tagged kinase dead construct KR, AA G547-L977, D688N) (O75460 547-977 D688N): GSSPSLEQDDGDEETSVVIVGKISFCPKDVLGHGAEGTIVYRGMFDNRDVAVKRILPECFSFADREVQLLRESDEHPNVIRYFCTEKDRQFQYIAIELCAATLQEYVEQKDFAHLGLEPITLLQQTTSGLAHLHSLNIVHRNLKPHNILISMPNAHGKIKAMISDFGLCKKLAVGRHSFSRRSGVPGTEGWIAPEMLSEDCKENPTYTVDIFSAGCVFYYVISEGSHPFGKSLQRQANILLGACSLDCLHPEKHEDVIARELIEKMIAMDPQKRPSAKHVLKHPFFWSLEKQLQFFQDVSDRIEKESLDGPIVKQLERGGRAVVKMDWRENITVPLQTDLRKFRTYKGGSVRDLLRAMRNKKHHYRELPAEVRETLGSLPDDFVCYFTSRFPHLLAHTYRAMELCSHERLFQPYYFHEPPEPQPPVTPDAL

Row | Structure (SMILES) | IC50 [nM]
1 | CC(C)(F)C1CNCC(Nc2nccc(-c3cccnc3Oc3cc(F)c(NS(=O)(=O)Cc4ccccc4)c(F)c3F)n2)C1 (single isomer, unassigned) [Compound 334, 1-Phenyl-N-(2,3,6-trifluoro-4-((3-(2-((5-(2-fluoropropan-2-yl)piperidin-3-yl)amino)pyrimidin-4-yl)pyridin-2-yl)oxy)phenyl)methanesulfonamide hydrochloride] | 9.8
2 | C[C@H]1CC[C@H](Nc2nccc(-c3cccnc3Oc3cc(F)c(NS(=O)(=O)Cc4ccccc4)c(F)c3F)n2)CN1 [Compound 257, 1-Phenyl-N-(2,3,6-trifluoro-4-((3-(2-(((3S,6S)-6-methylpiperidin-3-yl)amino)pyrimidin-4-yl)pyridin-2-yl)oxy)phenyl)methanesulfonamide] | 24
3 | Cc1cc(NS(=O)(=O)Cc2ccccc2)c(F)c(F)c1Oc1ncccc1-c1ccnc(N[C@@H]2CNC[C@H](C)C2)n1 [Compound 177, N-(2,3-difluoro-5-methyl-4-((3-(2-(((3S,5R)-5-methyl-3-piperidyl)amino)pyrimidin-4-yl)-2-pyridyl)oxy)phenyl)-1-phenyl-methanesulfonamide] | 4.9
4 | CCCCS(=O)(=O)Nc1cc(C)c(Oc2ncccc2-c2ccnc(N[C@H]3CCCNC3)n2)c(F)c1 [Compound 115, (S)-N-(3-fluoro-5-methyl-4-((3-(2-(piperidin-3-ylamino)pyrimidin-4-yl)pyridin-2-yl)oxy)phenyl)butane-1-sulfonamide hydrochloride] | 30
5 | Cc1cc(NS(=O)(=O)c2ccccc2Cl)cc(F)c1Oc1ncccc1-c1ccnc(N[C@H]2CC[C@H](N)CC2)n1 [Compound 102, N-[4-[[3-[2-[(4-aminocyclohexyl)amino]pyrimidin-4-yl]-2-pyridyl]oxy]-3-fluoro-5-methyl-phenyl]-2-chloro-benzenesulfonamide hydrochloride] | 10

The next compounds have a lower IC50 than those just listed; values first:

Row | IC50 [nM] | Structure (SMILES)
6 | 0.23 | COc1ccc(CS(=O)(=O)Nc2c(F)cc(Oc3ncccc3-c3ccnc(N[C@@H]4CNC[C@@](C)(F)C4)n3)c(F)c2F)cc1 [Compound 304, 1-(4-Methoxyphenyl)-N-(2,3,6-trifluoro-4-((3-(2-(((3S,5S)-5-fluoro-5-methylpiperidin-3-yl)amino)pyrimidin-4-yl)pyridin-2-yl)oxy)phenyl)methanesulfonamide]
7 | 0.28 | COc1cccc(CS(=O)(=O)Nc2c(F)cc(Oc3ncccc3-c3ccnc(N[C@@H]4CNC[C@@](C)(F)C4)n3)c(F)c2F)c1 [Compound 291, 1-(3-Methoxyphenyl)-N-(2,3,6-trifluoro-4-((3-(2-(((3S,5S)-5-fluoro-5-methylpiperidin-3-yl)amino)pyrimidin-4-yl)pyridin-2-yl)oxy)phenyl)methanesulfonamide]
8 | 0.59 | CC1(CF)CNCC(Nc2nccc(-c3cccnc3Oc3cc(F)c(NS(=O)(=O)Cc4ccccc4)c(F)c3F)n2)C1 (single isomer, unassigned) [Compound 294, 1-Phenyl-N-(2,3,6-trifluoro-4-((3-(2-((5-(fluoromethyl)-5-methylpiperidin-3-yl)amino)pyrimidin-4-yl)pyridin-2-yl)oxy)phenyl)methanesulfonamide]
9 | 3.5 | N#Cc1ccc(CS(=O)(=O)Nc2ccc(Oc3ncccc3-c3ccnc(N[C@H]4CCCNC4)n3)c(F)c2F)cc1 [Compound 166, (S)-1-(4-cyanophcnyl)-N-(2,3-difluoro-4-((3-(2-(piperidin-3-ylamino)pyrimidin-4-yl)pyridin-2-yl)oxy)phenyl)methanesulfonamide]
10 | 4.6 | Cc1cc(CS(=O)(=O)Nc2c(F)cc(Oc3ncccc3-c3ccnc(N[C@H]4CCCNC4)n3)c(F)c2F)no1 [Compound 195, (S)-1-(5-methylisoxazol-3-yl)-N-(2,3,6-trifluoro-4-((3-(2-(piperidin-3-ylamino)pyrimidin-4-yl)pyridin-2-yl)oxy)phenyl)methanesulfonamide]

Reference: patent US12071425B2 (Genentech, Inc., priority 2018, dated 2024)
